Data taken from a melting point compilation (Tetko et al.; mined from patent text by program, amines drawn as free bases though some values may be those of a salt).

Row | Compound | melting point [°C]
1 | Cc1cn([C@H]2C=C[C@@H](O)C2)c(=O)[nH]c1=O (racemic) | 191 to 192
2 | ClCCCCCOc1ccccc1OCCCCCCl | 61
3 | Cn1c(C2CCN(C(=O)OC(C)(C)C)CC2)nc2cc(-c3ccc(S(C)(=O)=O)cc3F)ccc21 | 85 to 88
4 | CCCCCCCCCCCCc1nnn(C(CCC)C(=O)Nc2c(OC)cc(OC)cc2OC)n1 (stereo not drawn) | 146 to 148
5 | Cc1cc2c(c3c(=O)cc(C(=O)O)oc13)OC(C)(C)c1cc(S(=O)(=O)O)ccc1-2 | 264 to 266
6 | COc1c(C)c(C)c(OC)c(C(O)(c2ccc(N3CCOCC3)cc2)C(C)C)c1C (stereo not drawn) | 191 to 193
7 | CS(=O)(=O)c1ccc(-c2nc3cc(C4CCN(S(=O)(=O)CCCO)CC4)ccc3o2)c(F)c1 | 204 to 206
8 | O=C1C2C[C@H](O)CN2C(=O)N1c1ccc([N+](=O)[O-])c2ccccc12 (stereo partly drawn) | 246 to 248
9 | COC(=O)c1ccc(C#Cc2ccc(O)c(C34CC5CC(CC(C5)C3)C4)c2)s1 | 207 to 208
10 | COc1nc(Cl)cc(I)c1C=O | 120 to 124
11 | CCOCn1c(-c2sc(Cl)c(Cl)c2Cl)c(C#N)c(Br)c1C(F)(F)F | 85 to 87
12 | COCCNC(=O)c1ccc(NS(=O)(=O)c2ccc(F)cc2)cn1 | 154
13 | CC(C)c1cccc(C(C)C)c1NC(=O)Nc1nnn(CCCCCCCCCCCCO)n1 | 80 to 90
14 | CC(=O)NC[C@H]1CN(c2ccc(N3CCC(F)(COS(C)(=O)=O)CC3)c(F)c2)C(=O)O1 | 182 to 183
15 | CCOC(=O)N1CCC(N)(CC#N)CC1 | 68 to 69
16 | CSc1c(F)cc(C(=O)CBr)cc1F | 30.5 to 33.2
17 | COc1nc(Cl)cnc1NS(=O)(=O)c1cccc(F)c1Cl | 159 to 160
18 | CC(C)(C)OC(=O)Nc1cc(OC(C)(C)C)c(C#Cc2ccc(F)cc2)cc1N | 183
19 | CC(C)(C)[Si](C)(C)Oc1c(I)cc(Cl)c2cccnc12 | 65 to 67
20 | Cc1nc2ccc3c(c2o1)OC(CN1CC=C(c2c[nH]c4ccc(Cl)cc24)CC1)CO3 (stereo not drawn) | 144 to 145
21 | CCNC(=S)NS(=O)(=O)c1cc2c(cc1OCC)OCCC2CNC(=O)N1CC(C)=C(CC)C1=O (stereo not drawn) | 178 to 180
22 | CC(=O)Nc1c(C(=O)C2CCCC(C)C2)[nH]c2cc(Cl)ccc12 (stereo not drawn) | 202 to 203
23 | N=C(NCc1cnc(Cl)s1)N[N+](=O)[O-] | 160 to 162

Row | Compound | melting point [°C]
24 | CC1=CC2(C=CC1(C)C(Cl)(Cl)Cl)SCC(C(C)(C)C)CS2 (stereo not drawn) | 141 to 143
25 | Cc1c(C)c2c(c(C)c1NC(=O)NCCO)C(c1ccc(C(C)C)cc1)CO2 (stereo not drawn) | 186 to 188
26 | Ic1cnc(-c2ccccn2)[nH]1 | 175 to 179
27 | Nc1sc(-c2cc(F)cc(F)c2)c(CN(C2CCCCC2)C2CCCCC2)c1C(=O)c1ccc(Cl)cc1 | 163 to 166
28 | CN(C)c1ccc(-c2cnc3[nH]cc(C(=O)N[C@@H](C(=O)N4CC(C#N)C4)C4CC4)c3n2)cc1 | 175 to 180
29 | COc1c(N2C[C@H](N)[C@H]3OCC[C@H]32)c(F)cc2c(=O)c(C(=O)O)cn(C3CC3)c12 (relative stereo) | 187 to 189
30 | Cc1cnc2c(c1)COP(=S)(N(C)C)O2 (stereo not drawn) | 101 to 102
31 | CCCCCCCCCCCCCCCCCCSCC(CO)C(C)C (stereo not drawn) | 29
32 | Clc1cc(Cl)c2oc(Cl)nc2c1 | 140 to 142
33 | O=C(O)c1sc(-c2ccc(C(F)(F)F)cc2)nc1C(F)(F)F | 177 to 179
34 | COc1cc(OC)nc(NC(=O)NS(=O)(=O)c2cc(N)ccc2C(=O)N(C)C)n1 | 192 to 193
35 | O=Cc1ccc(Sc2nc3cc(F)c(F)cc3[nH]2)o1 | 133
36 | COC(=O)CONC(=O)c1c(Cl)ccc(Cl)c1OC | 102 to 105
37 | COc1ccc(-c2cnc3cc4cnn(C(C)=O)c4cc3n2)cc1F | 261 to 265
38 | O=C(O)c1cn(C2COC2)c2cc(F)c(F)cc2c1=O | 255 to 256
39 | CCCCCCCCCCCCNC(=O)c1cc(Br)c(OCCn2ncnn2)c(-c2cccc(C(F)(F)F)c2)c1 | 75.6 to 76.2
40 | CCOC(=O)c1cnc2nn(C)cc2c1NCCCN(C)C | 61 to 63
41 | O=C(O)c1cn(-c2nccs2)c2nc(Cl)cc(Cl)c2c1=O | 264 to 266
42 | CCOC(=O)C(=CNC1CC1)C(=O)c1c(F)c(OC(F)F)c(F)c(F)c1[N+](=O)[O-] | 105 to 106
43 | Clc1cccc2c1c(Cl)nc1c(-c3nc(C4CC4)no3)ncn12 | 238 to 240
44 | C/C(=C\CC1SC(=O)NC1=O)c1cccc(OCc2nc(-c3ccc(OC(F)(F)F)cc3)oc2C)c1 (stereo not drawn) | 50 to 51
45 | C=CCNC(=O)NC(=O)c1c(Cl)cccc1[Si](C)(C)C | 68 to 71

The next lines start with the values.

Row | melting point [°C] | Compound
46 | 81 to 82 | O=Cc1ccc(OCc2ccccc2)c2c1OCO2
47 | 280 | c1ccc(-c2cc(-c3ccc(-c4nccc5ccccc45)cc3)cc(-c3nc(-c4ccccc4)nc(-c4ccccc4)n3)c2)cc1
48 | 175 to 178 | Cc1nc(-n2cc(-c3ccccc3)nn2)sc1C(=O)NCc1ccccc1
49 | 99.8 to 105 | CCn1c(C)c(C(c2ccco2)S(=O)(=O)c2ccc(C)cc2)c2ccccc21 (stereo not drawn)
50 | 140 to 142 | FC(F)(F)Oc1ccc(C=CC(C=Cc2ccc(OC(F)(F)F)cc2)=NNC2=NCCCN2)cc1
51 | 217 to 219 | COc1ccc(OC)c2c1C[C@@H](O)[C@H](N1CCN(c3ccccc3C)CC1)C2 (relative stereo)
52 | 177 to 179 | COC(=O)c1cc(N)c(F)c(-c2ccc(Cl)cc2)n1
53 | 56 | COC(=O)C(I)C(O)c1ccccc1 (stereo not drawn)
54 | 121 to 123 | COC(=O)Cc1ccccc1Cc1ccccc1C(=O)O
55 | 175 to 176 | COc1cc(COc2nn(Cc3ccccc3)cc2/C=C/C(=O)O)ccc1OCc1nc(-c2ccco2)oc1C
56 | 74 | COc1ccc(CN2C(=O)C(C)(c3cc(N(C)C(=O)C4CCCN4C(C)=O)ccc3Cl)c3cc(Cl)ccc32)c(OC)c1 (stereo not drawn)
57 | 116 to 118 | Cc1noc(NS(=O)(=O)c2ccccc2N)c1C
58 | 213 to 216 | COc1cc(OC)c(-c2cccs2)cc1/C=C/C(=O)c1ccc(C(=O)O)cc1
59 | 41 to 43 | O=C(NCCSCc1cccc(Cl)c1)c1c(F)cccc1F
60 | 113 to 115 | CCCC(=O)c1cnc2c(C(=O)OC)cccc2c1Nc1ccccc1C
61 | 80 to 82 | COC(=O)c1ccccc1NC(=O)Cl
62 | 59 to 61 | CN1CCC(c2c[nH]c3ccc(Cn4cncn4)cc23)C1 (stereo not drawn)
63 | 220 to 223 | O=C(c1ccccc1)c1ccc(Nc2ncnc3ccc(-n4ccnc4)cc23)cc1Cl
64 | 205 to 207 | Cc1c(-c2ccccc2)sc2c1c(=O)c(C(=O)C(C)C)cn2Cc1c(F)cccc1F
65 | 85 to 90 | CCNc1nc2cc(COc3cccc(C=O)c3)ccc2o1
66 | 190 to 191 | CC(C)[C@H](NC(=O)c1ccccc1)C(=O)NCC(=O)O
67 | 159 to 167 | CN(C)C1CCN2CCc3ccccc3C2(c2ccc(F)cc2)C1 (stereo not drawn)
68 | 149 to 150 | CC(C)n1nc(-c2c(-c3ccccc3)nn3ccc(OCCN4CCCC4)cc23)ccc1=O
69 | 150 to 152 | CCn1c(=O)c2cccc3c2n(c1=O)-c1cc(C(F)(F)F)ccc1S3
70 | 80 to 84 | Fc1ccc2c(c1)Cc1cccnc1-2
71 | 103 to 105 | Oc1ccc(CCN(Cc2ccccc2)CC(O)COc2ccccc2)cc1 (stereo not drawn)
72 | 201 to 203 | Cc1ccc(-c2cc3c(s2)CCCC(C(=O)Nc2ccc(CN(C)C4CCOCC4)cc2)=C3)cc1

Row | melting point [°C] | Compound
73 | 118 to 120 | COc1ccc(C=O)cc1-c1nsc2ccc(-n3c(=O)cc(C(F)(F)F)n(C)c3=O)cc12
74 | 118 to 120 | Nc1ncncc1Oc1ccccc1
75 | 165 to 167 | Cc1ccccc1C(=O)Nc1ccc(-n2nc(C(F)(F)F)cc2C(F)(F)F)cc1
76 | 229 to 230 | CCn1cc2c(n1)c(N)nc1cc(OCc3ccccc3)ccc12
77 | 133 to 135 | Cc1ccc(Cl)c(Nc2ccccc2C(=O)N(O)Cc2ccccc2)c1Cl
78 | 249 | Cc1nc2c3c(ccc2n1C)[C@@H](OCC(F)F)[C@H](O)[C@@H](c1ccccc1)O3
79 | 83 to 85 | COC(=O)[C@H](Cc1ccc(-c2ccccc2)cc1)NC(=O)OC(C)(C)C
80 | 114 | CCCCOc1ccc(S(=O)(=O)C2(C(=O)OCC)CCN(Cc3ccc(F)cc3)CC2)cc1
81 | 271 to 273 | CCc1nnc2c(NC)nc3ccccc3n12
82 | 196 to 197 | CCOC(=O)C(=O)Cc1ccnc2c1C(=O)c1ccccc1-2
83 | 93 to 95 | COC(=O)C(=O)c1ccc(OCCCCOc2ccc3ccccc3c2)cc1
84 | 172 | N#Cc1ccc(COc2ccc(-c3ccc(C4Cc5ccccc5C(O)C4)cc3)cc2)cc1 (stereo not drawn)
85 | 132 to 133 | CCc1ccccc1/C(N)=C1\Sc2ccccc2C1=O
86 | 214 | O=C1CN(c2ccccc2)C(=S)N1c1ccccc1
87 | 122 to 124 | CC(C)OC(=O)NC(=O)C(c1ccccc1)c1ccccc1
88 | 182 to 184 | Cc1ccc(C(=O)Nc2ccccc2)cc1NC(=S)Nc1cc(Cl)cc(Cl)c1
89 | 183 to 184 | CC(=O)NC[C@H]1CN(c2ccc(-n3cccn3)c(F)c2)C(=O)O1
90 | 174 | COc1ccc2c(c1)[nH]c1c(C)c(OS(=O)(=O)c3cccc4c(N(C)C)cccc34)ccc12
91 | 189 | CN1CCN(S(=O)(=O)c2ccccc2NC(=O)N[C@@H](Cc2ccc(NC(=O)c3c(Cl)cncc3Cl)cc2)C(=O)O)CC1
92 | 86.7 to 92.3 | Cc1nc(OCCO)c(C#N)c(N2CCc3ccccc3CC2)n1
93 | 123 to 124 | OC(CCCl)COc1ccc(-c2ccccc2)cc1 (stereo not drawn)
94 | 177 to 179 | COc1ccc2cc(OCc3ccccc3)c(C(=O)O)cc2c1
95 | 73 to 76 | CCCOc1ccc(-c2scc(-c3ccccc3Cl)c2CC(=O)NC(=N)NCCCO)cc1C
96 | 290 to 292 | O=c1c2cc(O)ccc2oc2c([N+](=O)[O-])ccc(Cl)c12
97 | 126 to 127 | CCN1C(=O)Cc2cc(C=O)ccc21
98 | 214 | O=C(O)/C(=C/c1cnc(CCc2ccccc2)n1Cc1ccc(C(=O)O)cc1)Cc1cccs1
